Assay results: ChEMBL document CHEMBL4616629, “Diosmin Treats Lipopolysaccharide-Induced Inflammatory Pain and Peritonitis by Blocking NF-κB Activation in Mice” (J Nat Prod, 2020)
Active and inactive are the calls of the source.

Key:
Mus musculus [1] = assay: Analgesic activity in LPS-induced Swiss mouse assessed as decrease in neutrophil recruitment in hind paw skin by measuring MPO activity at 10 to 100 mg/kg, po pretreated for 1 hr followed by LPS-stimulation and measured after 5 hrs by colorimetric assay; type: functional, organism-based
Mus musculus [2] = assay: Antiinflammatory activity against Swiss mouse model of LPS-induced inflammatory pain assessed as decrease in IL1beta level in peritoneal cavity at 30 mg/kg, po pretreated for 1 hr followed by LPS-stimulation and measured after 3 hrs by ELISA; type: functional, organism-based
[3] = target: Transcription factor p65 (Mus musculus) (UniProt Q04207); assay: Inhibition of NFkappaB in Swiss mouse peritoneal exudates model of LPS-induced inflammatory pain assessed as ratio of phosphorylated NFkappaB p65 at (Ser536 residue) to total NFkappaB p65 at 30 mg/kg, po pretreated for 1 hr followed by LPS-stimulation and measured after 3 hrs by ELISA; type: organism-based
Transcription factor p65 (Mus musculus), sequence (Q04207 whole entry): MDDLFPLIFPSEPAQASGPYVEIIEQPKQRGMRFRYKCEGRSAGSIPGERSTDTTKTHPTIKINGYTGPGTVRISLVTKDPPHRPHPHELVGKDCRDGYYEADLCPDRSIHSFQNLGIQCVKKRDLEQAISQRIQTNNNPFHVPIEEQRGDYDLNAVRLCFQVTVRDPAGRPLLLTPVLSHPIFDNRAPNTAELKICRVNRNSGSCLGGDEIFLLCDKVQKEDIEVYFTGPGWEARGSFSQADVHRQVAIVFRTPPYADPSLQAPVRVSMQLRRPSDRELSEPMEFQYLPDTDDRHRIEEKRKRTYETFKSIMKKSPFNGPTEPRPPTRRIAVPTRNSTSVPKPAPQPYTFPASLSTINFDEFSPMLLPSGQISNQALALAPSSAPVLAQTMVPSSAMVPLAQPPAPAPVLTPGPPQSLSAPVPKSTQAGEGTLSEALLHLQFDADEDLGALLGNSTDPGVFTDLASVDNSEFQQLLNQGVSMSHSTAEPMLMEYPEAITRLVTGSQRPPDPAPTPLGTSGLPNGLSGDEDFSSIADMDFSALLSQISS

[4] = target: Transcription factor p65 (Mus musculus) (UniProt Q04207); assay: Inhibition of NFkappaB in Swiss mouse peritoneal exudates model of LPS-induced inflammatory pain assessed as reduction area of colocalization between phosphorylated NFkappaB p65 and DAPI at 30 mg/kg, po pretreated for 1 hr followed by LPS-stimulation and measured after 3 hrs by Alexa Fluor 647 staining based immunofluorescence assay; type: organism-based
Mus musculus [5] = assay: Inhibition of NFkappaB in Swiss mouse peritoneal exudates model of LPS-induced inflammatory pain at 30 mg/kg, po pretreated for 1 hr followed by LPS-stimulation and measured after 3 hrs by Alexa Fluor 647 staining based immunofluorescence assay; type: organism-based
Mus musculus [6] = assay: Antiinflammatory activity against Swiss mouse model of LPS-induced peritonitis assessed as decrease in NBT-positive leukocytes in peritoneal exudate at 30 mg/kg, po pretreated for 1 hr followed by LPS-stimulation and measured after 3 hrs by light microscopic based cell counting method; type: functional, organism-based
Mus musculus [7] = assay: Analgesic activity in LPS-induced C57BL/6 mouse harboring LysM-eGFP assessed as decrease in neutrophil recruitment in hind paw skin by measuring fluorescence at 30 mg/kg, po pretreated for 1 hr followed by LPS-stimulation and measured after 5 hrs by confocal microscopic method; type: functional, organism-based
Mus musculus [8] = assay: Antioxidant activity in Swiss mouse model of LPS-induced inflammatory pain assessed as increase in GSH level in hind paw skin at mg/kg, po pretreated for 1 hr followed by LPS-stimulation and measured after 3 hrs by colorimetric based assay; type: functional, organism-based
Mus musculus [9] = assay: Antiinflammatory activity against Swiss mouse model of LPS-induced inflammatory pain assessed as decrease in IL1beta level in hind paw skin at 30 mg/kg, po pretreated for 1 hr followed by LPS-stimulation and measured after 3 hrs by ELISA; type: functional, organism-based
Mus musculus [10] = assay: Antioxidant activity in Swiss mouse model of LPS-induced inflammatory pain assessed as total ferric ion reducing activity in hind paw skin at mg/kg, po pretreated for 1 hr followed by LPS-stimulation and measured after 3 hrs by colorimetric based FRAP assay; type: functional, organism-based
Mus musculus [11] = assay: Antioxidant activity in Swiss mouse model of LPS-induced inflammatory pain assessed as reduction in lipid peroxidation in hind paw skin at mg/kg, po pretreated for 1 hr followed by LPS-stimulation and measured after 3 hrs by colorimetric based TBARS assay; type: functional, organism-based
Mus musculus [12] = assay: Analgesic activity in Swiss mouse model of LPS-induced inflammatory pain assessed as reduction in mechanical hyperalgesia at 30 to 100 mg/kg, po pretreated for 1 hr followed by LPS-stimulation and measured after 1 to 5 hrs by Von Frey test; type: functional, organism-based
Mus musculus [13] = assay: Antiinflammatory activity against Swiss mouse model of LPS-induced peritonitis assessed as decrease in superoxide anion production in peritoneal wash at 30 mg/kg, po pretreated for 1 hr followed by LPS-stimulation and measured after 3 hrs by NBT based spectrophotometric assay; type: functional, organism-based
Mus musculus [14] = assay: Analgesic activity in Swiss mouse model of LPS-induced inflammatory pain assessed as reduction in thermal hyperalgesia at 30 to 100 mg/kg, po pretreated for 1 hr followed by LPS-stimulation and measured after 1 to 5 hrs by hot plate technique; type: functional, organism-based
Mus musculus [15] = assay: Antiinflammatory activity against Swiss mouse model of LPS-induced inflammatory pain assessed as decrease in TNFalpha level in hind paw skin at 30 mg/kg, po pretreated for 1 hr followed by LPS-stimulation and measured after 3 hrs by ELISA; type: functional, organism-based
Mus musculus [16] = assay: Antiinflammatory activity against Swiss mouse model of LPS-induced peritonitis assessed as decrease in leukocyte recruitment in peritoneal cavity by measuring reduction in polymorphonuclear at 30 to 100 mg/kg, po pretreated for 1 hr followed by LPS-stimulation and measured after 3 hrs by light microscopic based Neubauer chamber cell counting method; type: functional, organism-based
Mus musculus [17] = assay: Antiinflammatory activity against Swiss mouse model of LPS-induced peritonitis assessed as decrease in leukocyte recruitment in peritoneal cavity by measuring reduction in mononuclear cells at 30 to 100 mg/kg, po pretreated for 1 hr followed by LPS-stimulation and measured after 3 hrs by light microscopic based Neubauer chamber cell counting method; type: functional, organism-based
Mus musculus [18] = assay: Antiinflammatory activity against Swiss mouse model of LPS-induced inflammatory pain assessed as decrease in TNFalpha level in peritoneal cavity at 30 mg/kg, po pretreated for 1 hr followed by LPS-stimulation and measured after 3 hrs by ELISA; type: functional, organism-based
Mus musculus [19] = assay: Antiinflammatory activity against Swiss mouse model of LPS-induced peritonitis assessed as decrease in leukocyte recruitment in peritoneal cavity by measuring reduction in total leukocytes at 30 to 100 mg/kg, po pretreated for 1 hr followed by LPS-stimulation and measured after 3 hrs by light microscopic based Neubauer chamber cell counting method; type: functional, organism-based
Mus musculus [20] = assay: Antiinflammatory activity against Swiss mouse model of LPS-induced inflammatory pain assessed as decrease in IL6 level in hind paw skin at 30 mg/kg, po pretreated for 1 hr followed by LPS-stimulation and measured after 3 hrs by ELISA; type: functional, organism-based
Mus musculus [21] = assay: Antioxidant activity in Swiss mouse model of LPS-induced inflammatory pain assessed as ABTS radical scavenging activity in hind paw skin at mg/kg, po pretreated for 1 hr followed by LPS-stimulation and measured after 3 hrs by colorimetric based assay; type: functional, organism-based
Mus musculus [22] = assay: Antioxidant activity in Swiss mouse model of LPS-induced inflammatory pain assessed as decrease in superoxide production in hind paw skin at mg/kg, po pretreated for 1 hr followed by LPS-stimulation and measured after 3 hrs by colorimetric based NBT assay; type: functional, organism-based
Mus musculus [23] = assay: Antiinflammatory activity against Swiss mouse model of LPS-induced inflammatory pain assessed as decrease in IL6 level in peritoneal cavity at 30 mg/kg, po pretreated for 1 hr followed by LPS-stimulation and measured after 3 hrs by ELISA; type: functional, organism-based
Mus musculus [24] = assay: Antiinflammatory activity against Swiss mouse model of LPS-induced peritonitis assessed as decrease in total ROS level at 30 mg/kg, po pretreated for 1 hr followed by LPS-stimulation and measured after 3 hrs by H2DCF-DA staining based confocal microscopic method; type: functional, organism-based
Mus musculus [25] = assay: Analgesic activity in LPS-induced Swiss mouse assessed as increase in right/left paw ratio at 30 mg/kg, po pretreated for 1 hr followed by LPS-stimulation and measured after 1 to 5 hrs by static weight bearing assay; type: functional, organism-based

COc1ccc(-c2cc(=O)c3c(O)cc(O[C@@H]4O[C@H](CO[C@@H]5O[C@@H](C)[C@H](O)[C@@H](O)[C@H]5O)[C@@H](O)[C@H](O)[C@H]4O)cc3o2)cc1O
active: Activity (Mus musculus [1]) | Activity (Mus musculus [2]) | inhibition [3] | inhibition [4] | inhibition (Mus musculus [5]) | Activity (Mus musculus [6]) | Activity (Mus musculus [7]) | Activity (Mus musculus [8]) | Activity (Mus musculus [9]) | Activity (Mus musculus [10]) | Activity (Mus musculus [11]) | Activity (Mus musculus [12]) | Activity (Mus musculus [13]) | Activity (Mus musculus [14]) | Activity (Mus musculus [15]) | Activity (Mus musculus [16]) | Activity (Mus musculus [17]) | Activity (Mus musculus [18]) | Activity (Mus musculus [19]) | Activity (Mus musculus [20]) | Activity (Mus musculus [21]) | Activity (Mus musculus [22]) | Activity (Mus musculus [23]) | Activity (Mus musculus [24]) | Activity (Mus musculus [25])
